In patent US20100130597A1, “DNA-PKCS MODULATES ENERGY REGULATION AND BRAIN FUNCTION” (The United State of America, as represented by the …, priority 2007, published 2010):
Blank lines part the entries; values can stand above or below the molecule they belong to.

Experiments:
[1] = system: MCF7 cells; assay: Reactive oxygen species production in MCF7 cells (CM-H2DCFDA); type: cell-based; details: for Reactive oxygen species production: NU 7026 5 μM 12 h, DNP 200 μM 10 min, Troglitazone 30 μM 4 hr, Euk-134 5 μM 3 h, MnTBAP 14 μM 3 h, FIG. 4
Text: Measurement of intracellular reactive oxygen species was based on changes in the fluorescence intensity of redox-sensitive fluorescent probes, including CM-H2DCFDA. CM-H2DCFDA is a probe for intracellular hydrogen peroxide (Jou M J et al. J. Biomed Sci 9:507 (2002)). CM-H2DCFDA rapidly diffuses into cells, reacts with intracellular glutathione and thiols, and yields a fluorescent product that is retained inside the cell (Shanker G et al. Mol Brain Res 128:48, 2004). The fluorescence intensity of CM-H2DCFDA is therefore indicative of the amount of intracellular H2O2.
Briefly, cells were incubated with 10 uM CM-H2DCFDA for 30 min at 37° C. The cells were then excited at the peak excitation wavelength for CM-H2DCFDA (485 nm) and emissions at 535 nm were measured with Wallac Victor multilable counter (Perkin Elmer). For glucose treatment, the total sugar content in the media was kept constant by supplementing with mannitol, which is not metabolized.
MCF-7 cells were obtained from ATCC and grown as recommended. Confluent MCF-7 cells were incubated with serum-free DMEM medium for 3-12 h before the experiment. MCF-7 cells were then treated with DNA-PK inhibitor NU 7026 (5 μM; Calbiochem) for 12 h, DNP (200 μM; Sigma) for 10 min, Troglitazone (30 μM) for 4 hr, Euk-134 (5 μM; Eukarion) for 3 h, MnTBAP (14 μM; Calbiochem) for 3 h and Resveratrol.

[2] = system: neurons; details: low concentrations; De Felice et al. 2001; cited from earlier work
[3] = biological target: T1, DNA-PKcs (Homo sapiens, UniProt P78527); assay: DNA-PKcs activation in MCF7 cells, immunoblot for phosphorylated Ser2056; type: cell-based; details: for DNA-PKcs activation in the presence of 25 mM glucose: MCF7 cells, FIG. 5
T1 construct: endogenous in cells; host or cells: MCF7 (ATCC)
Experimental: MCF7 cells were obtained from the ATCC. MCF7 cells in G0 were treated with varying doses of H2O2 (FIG. 1). The cells were examined while in the G0 phase of their life cycle to mimic the post-mitotic state of cells in vivo. Low passage MCF-7 cells in G0 were exposed to varying concentrations of H2O2 for 60 minutes with or without Euk-134 or ionizing radiation (5 Gy). For Western blot analysis of DNA-PKcs activation and the activation of other signaling pathways in this study, the following antibodies were used: ACC1 (Cell Signaling); p-ACC1 (Upstate); AMP-activated protein kinase (AMPK; Cell Signaling); p-AMPK(T172) (Cell Signaling); DNA-PK (Lab Vision); p53 (Novocastra); p-DNA-PK(S2056) (Abeam); p-p53(S15) (Cell Signaling); γ-H2AX (Upstate); 53BP1 (Novus Biologicals).
Activation of DNA-PKcs was visualized by immunoblotting cell lysates with antibody specific for phosphorylated Ser2056, which is autophosphorylated during DNA-PKcs activation (Chen et al., J. Biol. Chem. 280: 14709-15 (2005)) (FIG. 1). […] Instead, H2O2 increased DNA-PKcs activation, and such activation was abrogated by the antioxidant Euk-134 (FIG. 1), a potent synthetic superoxide dismutase and catalase mimetic (Chatterjee, Am. J. Nephrol. 24: 165-77 (2004)).
MCF7 cells were then cultured in 25 mM glucose. Aliquots of the cultured MCF7 cells were treated with ionizing radiation and/or the DNA-PKcs-specific inhibitor NU7026. Treatment with glucose and ionizing radiation increased DNA-PKcs phosphorylation (data not shown). […] The basal activity of DNA-PKcs in MCF-7 cells in 25 mM glucose was detectable even in the absence of ionizing radiation, but this basal activity was suppressed with the DNA-PKcs-specific inhibitor NU7026 (data not shown).

[4] = Hot plate test, latency for pain reaction; type: in vivo, mice; details: data not shown
Experimental: Epidemiological studies indicate that people with mood disorders are twice as likely to have chronic pain compared to people without mood disorders (Ohayon et al., Arch. Gen. Psychiatry 60: 39-47 (2003)). Although it is possible that pain contributes to the depressed mood, it is also possible that perception of pain is increased in people with mood disorders. To determine whether SCID mice have altered pain tolerance, the latency for pain reaction to a hot plate was measured. […] (FIG. 30) and at 55° C.
Because tolerance to pain (Example 26) is also linked to the serotonergic pathways, measurements of the latency to pain reaction on hot plate after saline, serotonin reuptake inhibitor fluoxetine (Prozac) or serotonin antagonist GR38032F (Zofran) injection were made.
(§1) Elevated plus maze tests, light/dark chamber tests, forced swim tests (FST) and hot plate tests were performed as described earlier.

[5] = Elevated plus maze test; type: in vivo, mice; details: SCID mice, intraperitoneal injection, FIG. 33
Experimental: To evaluate whether SCID mice may also have altered anxiety, fear and depression-like traits, an elevated plus maze test was performed, which is a commonly used test to quantify the level of anxiety- and depression-like traits in rodents (Pellow et al. J. Neurosci. Methods 14: 149-67 (1985)). The elevated plus maze has narrow runways that are located 16 inches above the surface that are either closed or open. The animal is placed in the center of an elevated 4-arm maze in which 2 arms are open and 2 are enclosed. Mice generally avoid the open arms because of their fear of open space and height. The elevated plus-maze is used to determine the rodent's response to a potentially dangerous environment and anxiety-related behavior is measured by the degree to which the rodent avoids the unenclosed arms of the maze. Increase in the number of times the animal enters the open arm and the amount of time spent in the open arms reflect decreased anxiety and depression.
as §1

[6] = biological target: DNA-PK (Homo sapiens, UniProt P78527); details: Hardcastle et al., J. Med. Chem. 48: 7829-46 (2005); read-out: IC50 against DNA-PK; cited from earlier work
[7] = system: LKB1; assay: LKB1 activation (LKB1 phosphorylation) in C2C12 cells; type: cell-based; details: NU7026 2.5 μM, Resveratrol 50 μM, FIG. 51A
Experimental: Cells were treated with DNA-PKcs inhibitors to ascertain whether DNA-PKcs suppresses LKB1 activity in vitro.

[8] = system: Sirt1 and PGC-1α; assay: Sirt1 and PGC-1α expression in C2C12 myoblasts; type: cell-based
Experimental: (§2) Increased mitochondrial function boosts energy production and physical endurance. […] Further tests were therefore conducted to ascertain whether DNA-PKcs inhibitor elevates mitochondrial biogenesis and expression of PGC-1α and Sirt, which are important for mitochondrial biogenesis. […] It is important to note that only 2.5 μM of NU7026 was required to induce a similar level of Sirt1 to that induced by 25-50 μM Resveratrol, a well-known, potent Sirt1 activator.

[9] = system: C2C12 cells; assay: Mitochondrial DNA copy number in C2C12 cells; type: cell-based; details: C2C12 myoblasts, FIG. 49C
Experimental: Quantitative Real-Time PCR was used to assess the relative amounts of nuclear DNA and mtDNA, to permit assessment of the ratio of mtDNA to nucleic DNA, which reflects the tissue concentration of mitochondria per cell. Muscle tissues were homogenized and digested with Proteinase K overnight in a lysis buffer for DNA extraction by conventional phenol-chloroform method. Quantitative PCR was performed using the following primers: […]
as §2, with “activator. In FIG. 49C, mitochondrial DNA copy number increased (>1.8 fold) in C2C12 cells after 2.5 μM NU7026 treatment.” for “activator.”

[10] = middle cerebral artery ligation; Baker et al. 1998; cited from earlier work
[11] = rats, systemic administration of kainic acid; Rong et al. 1999; cited from earlier work
[12] = ROS levels in tissues of ob/ob mice; type: in vivo; details: FIG. 38
[13] = Treadmill running endurance; type: in vivo, mice; details: ob/ob mice, FIG. 39
Experimental: Previous studies have shown that increased expression of PPARδ or PGC-1α in skeletal muscle decreases exercise-induced fatigue. Therefore, tests were performed to ascertain what was the physical endurance of 4, 7 and 14 month-old SCID and WT mice using treadmill running. Prior to the exercise test, the mice were accustomed to and trained by running on an Exer-3/6 mouse treadmill (Columbus Instruments) at 7 m/min for 5 minutes for 3 days. For the endurance test, the treadmill speed was increased to 10 m/min and mice were allowed to run until exhaustion.
The therapeutic potential of DNA-PKcs inhibitors to reverse physical decline with aging was tested. In particular, the physical endurance of obese and middle-aged mice treated with Cpd36 was examined by treadmill running. Obese mice fed a high-fat diet that were treated with Cpd36 were able to run 40-50% farther over a given period of time than the control mice fed the same high fat diet (FIG. 45), as measured by totaling the distance run on a treadmill. Middle-aged mice (13 months) fed a breeder diet who were similarly treated with Cpd36 were also able to run 40-50% farther than middle aged mice that received no such treatment (data not shown).

[14] = in vitro; cited from earlier work

Molecule: Cc1c(C)c2c(c(C)c1O)CCC(C)(COc1ccc(CC3SC(=O)NC3=O)cc1)O2 (racemic) [TZD, (±)-[[4-[(3,4-dihydro-6-hydroxy-2,5,7,8-tetramethl-2H-1-benzopyran-2-yl)methoxy]phenyl]methyl]-2,4-thiazolidinedione]
- Reactive oxygen species production [1]: significantly decreased

Molecule: O=[N+]([O-])c1ccc(O)c([N+](=O)[O-])c1 [DNP, 2,4-dinitrophenol]
- protection of neurons against amyloid-beta peptide toxicity [2]: protect neurons against the toxicity of the amyloid-beta peptide
- DNA-PKcs activation in the presence of 25 mM glucose [3]: decreased DNA-PKcs activation
- Reactive oxygen species production [1]: significantly decreased

Molecule: CNCCC(Oc1ccc(C(F)(F)F)cc1)c1ccccc1 (stereo not drawn) [Fluoxetine]
- latency for pain reaction on hot plate ([4]; wild-type mice): increased the latency for pain reaction in wild-type mice

Molecule: Cc1nccn1CC1CCc2c(c3ccccc3n2C)C1=O.Cl (stereo not drawn) [GR38032F]
- latency for pain reaction on hot plate ([4]; SCID mice): decreased the latency for pain reaction in SCID mice
- latency for pain reaction on hot plate ([4]; wild-type mice): not wild-type mice
- number of SCID mice that stayed in the open arm 30 sec or longer [5]: decreased dramatically

Molecule: O=c1cc(N2CCOCC2)oc2c(-c3cccc4c3sc3ccccc34)cccc12 [NU7441, 8-dibenzothiophen-4-yl-2-morpholin-4-yl-chromen-4-one]
- IC50 [6]: 0.013 µM

- DNA-PKcs activation in the presence of 25 mM glucose [3]: decreased DNA-PKcs activation
Molecule: Oc1ccc(/C=C/c2cc(O)cc(O)c2)cc1 [Resveratrol]
- LKB1 activation (LKB1 phosphorylation) [7]: showed LKB1 activation
- concentration required to induce a similar level of Sirt1 [8]: 25 to 50 µM
- PGC-1α and Sirt1 expression ([8]; FIG. 49): increased
- relative copy number of mitochondrial DNA [9]: increases
- Reactive oxygen species production [1]: significantly decreased

- DNA-PKcs activation in the presence of 25 mM glucose [3]: decreased DNA-PKcs activation
Molecule: CN(C)C(=N)NC(=N)N [metformin]

- H2O2-induced DNA-PKcs activation ([3]; MCF7 cells in G0, H2O2 60 minutes, FIG. 1): abrogated
- DNA-PKcs activation in the presence of 25 mM glucose [3]: decreased DNA-PKcs activation
Molecule: Euk-134
- effect in rat stroke model [10]: protective effects
- oxidative stress and brain damage [11]: prevent oxidative stress and attenuate brain damage
- ROS production in muscle, WAT and heart tissues [12]: decreased ROS production
- treadmill running ability [13]: increased running ability of ob/ob mice dramatically
- hydrogen peroxide consumption [14]: consumes hydrogen peroxide in vitro
- Reactive oxygen species production [1]: significantly decreased
- glucose-induced reactive oxygen species production ([1]; glucose 0-25 mM, 3 hr, FIG. 2): partially suppressed

Molecule: Manganese (III) tetrakis(4-benzoic acid)porphyrin [MnTBAP]
- DNA-PKcs activation in the presence of 25 mM glucose [3]: decreased DNA-PKcs activation
- Reactive oxygen species production [1]: significantly decreased
